Measurements: patent US20040052734A1, “Process for providing a stable crystalline form of salbutamol” (Boehringer Ingelheim Pharma GmbH & Co. KG, priority 2002, published 2004)
“And” between values parts separate entries of the source, which are not always exact repeats. Identical values can stand only once.

How the values were obtained:
Assay type in all cases: physicochemical
[1] = Particle size analysis by powder laser diffraction (HELIOS, RODOS dry powder feeder)
Protocol: Micronised powders were prepared with a MC Jetmill 50 (Jetpharma, Balerna, Switzerland). The micronised powder underwent different conditioning settings in a climate chamber ([…] GmbH, […], Germany). The temperature was set at 25° C. and 40° C. and the relative humidity was varied in a field between 45% and 75%, respectively. For “dry” conditioning settings the powders were prepared at a temperature of 70° C. in a thermal oven (Heraeus, Hanau, Germany). […] Samples were introduced through the RODOS dry powder feeder. The supply pressure of the injector was at 3 bar.

[2] = Powder X-ray diffraction at different temperatures under vacuum; settings: amorphous (produced by freeze-drying)
Protocol: The Powder X-Ray Diffraction (Bruker, Rheinstetten, Germany) patterns were acquired at different temperatures using Cu-K α radiation (λ=1.5406 Å). The data were collected over an angular range of 2-40°2θ using a step size of 0,014°2θ and a step time of 2 sec.

[3] = Recording of humidity (sorption behaviour of micronised, wrapped powder); settings: unconditioned, stored at 55% RH
Protocol: Using a humidity sensor (Ebro, Ingolstadt, Germany) the sorption behaviour of the micronised and wrapped powder was measured. With the help of a humidity sensor it is possible to observe the sorption behaviour of the micronised, in a PE-bag wrapped, powder. Approx. 30 g of the freshly grinded substance are wrapped in a PE-bag together with a humidity sensor and afterwards closed.

[4] = Isothermal microcalorimetry (amorphous content / recrystallisation); settings: for amorphous amount: micronised, stored in opened TWO-Glass at room temperature (21.5° C., 42% RH)
Protocol: The micronised powder underwent different conditioning settings in a climate chamber (Weiβ Klimatechnik GmbH, Reiskirchen-Lindstruth, Germany). The temperature was set at 25° C. and 40° C. and the relative humidity was varied in a field between 45% and 75%, respectively.
For “dry” conditioning settings the powders were prepared at a temperature of 70° C. in a thermal oven (Heraeus, Hanau, Germany).
The powder was investigated using a Thermal Activity Monitor (Type 2277, Thermometric, Sweden) at 25° C. The samples were weighted into a glass ampoule and a tube was added containing a saturated salt solution. The ampoule was sealed and equilibrated in the calorimeter for 5 min before lowering it into the measuring site.

[5] = Table 1 batch, micronised powder, before conditioning
[6] = Table 2 batch, micronised powder, before conditioning
[7] = micronised powder conditioned 5 hours by 70° C. (dry)

CC(C)(C)NC[C@H](O)c1ccc(O)c(CO)c1 (racemic) [salbutamol sulphate]
effect of additional conditioning duration on particle size ([1]; 40° C. and 75% RH beyond five hours, storage under same conditions for two weeks): no effect on the particle size | Particle size 10% < [1, 5]: 0.83 μm | Particle size 50% < [1, 5]: 1.94 μm | Particle size 90% < [1, 5]: 4.53 μm | Particle size 10% < [1, 6]: 0.70 μm | Particle size 50% < [1, 6]: 1.30 μm and 1.53 μm | Particle size 90% < [1, 6]: 3.42 μm | Particle size 10% < ([1]; conditioned 24 h 55% RH 25° C.): 0.78 μm | Particle size 50% < ([1]; conditioned 24 h 55% RH 25° C.): 1.66 μm | Particle size 90% < ([1]; conditioned 24 h 55% RH 25° C.): 3.56 μm | Particle size 10% < ([1]; conditioned 24 h 55% RH 40° C.): 0.79 μm | Particle size 50% < ([1]; conditioned 24 h 55% RH 40° C.): 1.68 μm | Particle size 90% < ([1]; conditioned 24 h 55% RH 40° C.): 3.59 μm | Particle size 10% < ([1]; conditioned 24 h 65% RH 25° C.): 0.82 μm | Particle size 50% < ([1]; conditioned 24 h 65% RH 25° C.): 1.76 μm | Particle size 90% < ([1]; conditioned 24 h 65% RH 25° C.): 3.67 μm | Particle size 10% < ([1]; conditioned 24 h 65% RH 40° C.): 0.80 μm | Particle size 50% < ([1]; conditioned 24 h 65% RH 40° C.): 1.72 μm | Particle size 90% < ([1]; conditioned 24 h 65% RH 40° C.): 3.64 μm | Particle size 10% < ([1]; conditioned 24 h 75% RH 25° C.): 0.83 μm | Particle size 50% < ([1]; conditioned 24 h 75% RH 25° C.): 1.77 μm | Particle size 90% < ([1]; conditioned 24 h 75% RH 25° C.): 3.69 μm | Particle size 10% < ([1]; conditioned 24 h 75% RH 40° C.): 0.84 μm | Particle size 50% < ([1]; conditioned 24 h 75% RH 40° C.): 1.78 μm | Particle size 90% < ([1]; conditioned 24 h 75% RH 40° C.): 3.69 μm | uncontrolled particle growth in terms of particle diameters ([1]; dry conditioning, then four weeks of storage): up to 16% | Particle size 10% < [1, 7]: 0.82 μm | Particle size 50% < [1, 7]: 1.90 μm | Particle size 90% < [1, 7]: 4.45 μm | particle size on storage without conditioning ([1]; wrapped, stored 21-23° C., approx. 45% RH, up to three months): shows likewise particle growth | recrystallisation of amorphous material [2]: does not recrystallize under exclusion of humidity | recrystallisation on storage [3]: completely recrystallized within one week | recrystallisation after dry conditioning ([4]; 70° C. for 5 hours): does not lead to recrystallisation | reduction of the amorphous fraction ([4]; conditioning at 25° C. and 45% RH for 24 hours): 2.5% | crystallinity after conditioning ([4]; five hours of conditioning at 40° C. and 75% RH, partially amorphous powder): complete crystalline material | amorphous content ([4]; initial sample (micronised, before conditioning)): 7.7% | amorphous amount ([4]; after 1st week): 6.5% | amorphous amount ([4]; after 2nd week): 5.4% | amorphous amount ([4]; after 4th week): 4.5% | amorphous content ([4]; unconditioned powder, wrapped, stored four weeks at 21-23° C., approx. 45% RH): < 0.5%
